Reference: US20050170041A1, “Chewing gum compositions comprising monatin and methods for making same” (Cargill, Inc., priority 2003, published 2005)
Entries after “also recorded” stand apart in the source; their conditions may differ.

Legend:
[1] = Sensory stability of monatin and aspartame at pH 2.5, 3.0, 4.0 at 40° C.; type: physicochemical; conditions: for Rate constant (k) of sweetness loss: 40° C., pseudo-first order assumed; for SEV Monatin / Retention of Monatin Sweetness: stored at 40° C., monatin ~55 ppm
Protocol: The sensory stability of monatin solutions prepared at pH 2.5, 3.0 and 4.0 and stored at 40° C. was monitored for 100 days. Loss of sweetness from these solutions was compared with the losses of sweetness from aspartame solutions prepared and stored under identical conditions.
The sensory stability of monatin (8% SEV, ˜55 ppm, synthetic blend containing approximately 96% of the 2R,4R/2S, 4S enantiometric pair and 4% of the 2R,4S/2S,4R enantiometric pair) in phosphate/citrate buffers having a pH of 2.5, 3.0, and 4.0 was examined after storage at 40° C. The stability of monatin was compared to that of aspartame (400 ppm) in the same buffers. Three sucrose reference solutions were prepared in the same phosphate/citrate buffers as the monatin and aspartame solutions. All prepared solutions were stored in the dark.
The sweetness of each sweetener relative to sucrose was assessed in duplicate by a panel (n=8) of trained sensory evaluators experienced in the sweetness estimation procedure. All samples (in the same buffers) were served in duplicate at a temperature of 22° C.±1° C. Monatin (test) solutions, coded with 3 digit random number codes were presented individually to panelists, in random order. Sucrose reference standards, ranging from 4.0-10.0% (w/v) sucrose, increasing in steps of 0.5% (w/v) sucrose were also provided. Panelists were asked to estimate sweetness by comparing the sweetness of the test solution to the sucrose standards. This was carried out by taking 3 sips of the test solution, followed by a sip of water, followed by 3 sips of sucrose standard followed by a sip of water, etc. Panelists were encouraged to estimate the sweetness to one decimal place, e.g., 6.8, 8.5. A five minute rest period was imposed between evaluating the test solutions. Panelists were also asked to rinse well and eat a cracker to reduce any potential carry over effects.
If a pseudo-first order breakdown reaction is assumed, a plot of logn percentage retention versus time (logn % RTN v. t) allows estimation of the half-life (t½) and rate constant (k) of sweetness loss under any given set of conditions. In so doing, the kinetics of monatin and aspartame sweetness loss may be summarized as follows in Table 14.

[2] = Quantitative synergy of monatin in blends with other sweeteners; type: in vivo

## NC(CC(O)(Cc1c[nH]c2ccccc12)C(=O)O)C(=O)O (stereo not shown) [Monatin, 2-hydroxy-2-(indol-3-ylmethyl)-4-aminoglutaric acid]
[1]; acidic conditions and storage at 40° C.
  stability of sweetness compared with aspartame: more stable sweetness than does aspartame
[1]; each pH (2.5, 3.0, 4.0), after 100 days storage at 40° C.
  percentage retention of sweetness compared with aspartame: greater than that retained with aspartame; also recorded: greater than that retained from aspartame
[1]; pH 2.5
  Rate constant (k) of sweetness loss: 0.011 day⁻¹
[1]; pH 2.5, after 100 days storage at 40° C.
  Sweetness Retained: 29%
[1]; pH 2.5, day 0
  SEV Monatin: 7.35 % sucrose
[1]; pH 2.5, day 1
  Retention of Monatin Sweetness: 93.3%
  SEV Monatin: 6.86 % sucrose
[1]; pH 2.5, day 2
  Retention of Monatin Sweetness: 91.2%
  SEV Monatin: 6.70 % sucrose
[1]; pH 2.5, day 3
  Retention of Monatin Sweetness: 88.4%
  SEV Monatin: 6.50 % sucrose
[1]; pH 2.5, day 4
  Retention of Monatin Sweetness: 85.2%
  SEV Monatin: 6.26 % sucrose
[1]; pH 2.5, day 7
  Retention of Monatin Sweetness: 82.7%
  SEV Monatin: 6.08 % sucrose
[1]; pH 2.5, day 8
  Retention of Monatin Sweetness: 81.4%
  SEV Monatin: 5.98 % sucrose
[1]; pH 2.5, day 9
  Retention of Monatin Sweetness: 80.1%
  SEV Monatin: 5.89 % sucrose
[1]; pH 2.5, day 11
  Retention of Monatin Sweetness: 78.6%
  SEV Monatin: 5.78 % sucrose
[1]; pH 2.5, day 50
  Retention of Monatin Sweetness: 62.7%
  SEV Monatin: 4.61 % sucrose
[1]; pH 2.5, day 100
  Retention of Monatin Sweetness: 28.6%
  SEV Monatin: 2.10 % sucrose
[1]; pH 3.0
  Rate constant (k) of sweetness loss: 0.006 day⁻¹
[1]; pH 3.0, after 100 days storage at 40° C.
  Sweetness Retained: 58%
[1]; pH 3.0, day 0
  SEV Monatin: 7.08 % sucrose
[1]; pH 3.0, day 1
  Retention of Monatin Sweetness: 99.6%
  SEV Monatin: 7.05 % sucrose
[1]; pH 3.0, day 2
  Retention of Monatin Sweetness: 93.2%
  SEV Monatin: 6.60 % sucrose
[1]; pH 3.0, day 3
  Retention of Monatin Sweetness: 91.4%
  SEV Monatin: 6.47 % sucrose
[1]; pH 3.0, day 4
  Retention of Monatin Sweetness: 91.6%
  SEV Monatin: 6.49 % sucrose
[1]; pH 3.0, day 7
  Retention of Monatin Sweetness: 85.3%
  SEV Monatin: 6.04 % sucrose
[1]; pH 3.0, day 8
  Retention of Monatin Sweetness: 83.8%
  SEV Monatin: 5.93 % sucrose
[1]; pH 3.0, day 9
  Retention of Monatin Sweetness: 83.1%
  SEV Monatin: 5.88 % sucrose
[1]; pH 3.0, day 11
  Retention of Monatin Sweetness: 83.1%
  SEV Monatin: 5.88 % sucrose
[1]; pH 3.0, day 50
  Retention of Monatin Sweetness: 72.3%
  SEV Monatin: 5.12 % sucrose
[1]; pH 3.0, day 100
  Retention of Monatin Sweetness: 57.9%
  SEV Monatin: 4.10 % sucrose
[1]; pH 4.0
  Rate constant (k) of sweetness loss: 0.003 day⁻¹
[1]; pH 4.0, after 100 days storage at 40° C.
  Sweetness Retained: 78%
[1]; pH 4.0, day 0
  SEV Monatin: 7.40 % sucrose
[1]; pH 4.0, day 3
  Retention of Monatin Sweetness: 95.7%
  SEV Monatin: 7.08 % sucrose
[1]; pH 4.0, day 8
  Retention of Monatin Sweetness: 86.8%
  SEV Monatin: 6.42 % sucrose
[1]; pH 4.0, day 11
  Retention of Monatin Sweetness: 85.9%
  SEV Monatin: 6.36 % sucrose
[1]; pH 4.0, day 17
  Retention of Monatin Sweetness: 82.4%
  SEV Monatin: 6.10 % sucrose
[1]; pH 4.0, day 24
  Retention of Monatin Sweetness: 84.5%
  SEV Monatin: 6.25 % sucrose
[1]; pH 4.0, day 50
  Retention of Monatin Sweetness: 82.9%
  SEV Monatin: 6.14 % sucrose
[1]; pH 4.0, day 100
  Retention of Monatin Sweetness: 78.4%
  SEV Monatin: 5.80 % sucrose
[2]; blend with cyclamates
  quantitative synergy with cyclamates: quantitatively synergistic
[2]; with aspartame, saccharin, acesulfame-K, sucralose, or carbohydrate sweeteners
  quantitative synergy with other sweeteners: no significant quantitative synergy
